Columns and labels:
Assay in all cases: NCI single dose screening (10 µM)
Type in all cases: cell-based
CCRF-CEM = details: Homo sapiens, read-out: GI% (cell growth inhibition percentage)
MOLT-4 = details: Homo sapiens, MOLT-4, read-out: GI% (cell growth inhibition percentage)
SR = details: Homo sapiens, read-out: GI% (cell growth inhibition percentage)
NCI-H23 = details: Homo sapiens, NCI-H23, read-out: GI% (cell growth inhibition percentage)
NCI-H522 = details: Homo sapiens, NCI-H522, read-out: GI% (cell growth inhibition percentage)
NCI-H460 = details: Homo sapiens, NCI-H460, read-out: GI% (cell growth inhibition percentage)
COLO 205 = details: Homo sapiens, COLO 205, read-out: GI% (cell growth inhibition percentage)
HCT-116 = details: Homo sapiens, HCT-116, read-out: GI% (cell growth inhibition percentage)
KM12 = details: Homo sapiens, KM12, read-out: GI% (cell growth inhibition percentage)
SF-539 = details: Homo sapiens, SF-539, read-out: GI% (cell growth inhibition percentage)
SF-268 = details: Homo sapiens, SF-268, read-out: GI% (cell growth inhibition percentage)
SF-295 = details: Homo sapiens, SF-295, read-out: GI% (cell growth inhibition percentage)
U251 = details: Homo sapiens, U-251, read-out: GI% (cell growth inhibition percentage)
MALME-3M = details: Homo sapiens, Malme-3M, read-out: GI% (cell growth inhibition percentage)
LOX IMVI = details: Homo sapiens, read-out: GI% (cell growth inhibition percentage)
MDA-MB-435 = details: Homo sapiens, MDA-MB-435, read-out: GI% (cell growth inhibition percentage)
SK-MEL-2 = details: Homo sapiens, SK-MEL-2, read-out: GI% (cell growth inhibition percentage)
SK-MEL-28 = details: Homo sapiens, SK-MEL-28, read-out: GI% (cell growth inhibition percentage)
NCI/ADR-RES = details: Homo sapiens, read-out: GI% (cell growth inhibition percentage)
IGROV1 = details: Homo sapiens, IGROV-1, read-out: GI% (cell growth inhibition percentage)
OVCAR-3 = details: Homo sapiens, OVCAR-3, read-out: GI% (cell growth inhibition percentage)
OVCAR-4 = details: Homo sapiens, OVCAR-4, read-out: GI% (cell growth inhibition percentage)
OVCAR-5 = details: Homo sapiens, OVCAR-5, read-out: GI% (cell growth inhibition percentage)
786-0 = details: Homo sapiens, 786-0, read-out: GI% (cell growth inhibition percentage)
CAKI-1 = details: Homo sapiens, CAKI-1, read-out: GI% (cell growth inhibition percentage)
ACHN = details: Homo sapiens, read-out: GI% (cell growth inhibition percentage)
UO-31 = details: Homo sapiens, UO-31, read-out: GI% (cell growth inhibition percentage)
BT-549 = details: Homo sapiens, BT-549, read-out: GI% (cell growth inhibition percentage)
MDA-MB-231/ATCC = details: Homo sapiens, MDA-MB-231, read-out: GI% (cell growth inhibition percentage)
HS 578 T = details: Homo sapiens, Hs-578T, read-out: GI% (cell growth inhibition percentage)
MDA-MB-468 = details: Homo sapiens, MDA-MB-468, read-out: GI% (cell growth inhibition percentage)
T-47D = details: Homo sapiens, T47D, read-out: GI% (cell growth inhibition percentage)

In the case of `CCCN1C(=O)/C(=N\NC(=O)c2oc3ccccc3c2C)c2ccccc21` [Compound 7b], the inhibition at 10 µM (CCRF-CEM) is reported as < 10%, the inhibition at 10 µM (MOLT-4) is reported as < 10% and the inhibition at 10 µM (SR) is reported as < 10%. It also gave an inhibition at 10 µM (NCI-H23) of 15.1%, an inhibition at 10 µM (NCI-H522) of 10.3% and an inhibition at 10 µM (NCI-H460) of 15.6%. The inhibition at 10 µM (COLO 205) was < 10%, the inhibition at 10 µM (HCT-116) was < 10% and the inhibition at 10 µM (KM12) was < 10%. For the same compound, the inhibition at 10 µM (SF-539) was < 10%, the inhibition at 10 µM (SF-268) was < 10% and the inhibition at 10 µM (SF-295) was 11.9%. The inhibition at 10 µM (U251) was < 10%, the inhibition at 10 µM (MALME-3M) was < 10% and the inhibition at 10 µM (LOX IMVI) was < 10%. For the same compound, the inhibition at 10 µM (MDA-MB-435) was < 10%, the inhibition at 10 µM (SK-MEL-2) was < 10% and the inhibition at 10 µM (SK-MEL-28) was < 10%. For the same compound, the inhibition at 10 µM (NCI/ADR-RES) was 10.3%, the inhibition at 10 µM (IGROV1) was 42.5% and the inhibition at 10 µM (OVCAR-3) was < 10%. For the same compound, the inhibition at 10 µM (OVCAR-4) was < 10%, the inhibition at 10 µM (OVCAR-5) was < 10% and the inhibition at 10 µM (786-0) was < 10%. For the same compound, the inhibition at 10 µM (CAKI-1) was 11.3%, the inhibition at 10 µM (ACHN) was 11.6% and the inhibition at 10 µM (UO-31) was 34.3%. For the same compound, the inhibition at 10 µM (BT-549) was < 10%, the inhibition at 10 µM (MDA-MB-231/ATCC) was 29% and the inhibition at 10 µM (HS 578 T) was < 10%. For the same compound, the inhibition at 10 µM (MDA-MB-468) was < 10% and the inhibition at 10 µM (T-47D) was 23.8%.
`Cc1c(C(=O)N/N=C2\C(=O)N(Cc3ccccc3)c3ccccc32)oc2ccccc12` [Compound 7d] was tested, and the inhibition at 10 µM (CCRF-CEM) was < 10%, the inhibition at 10 µM (MOLT-4) was < 10% and the inhibition at 10 µM (SR) was < 10%. It also gave an inhibition at 10 µM (NCI-H23) of 13.2%, an inhibition at 10 µM (NCI-H522) of 21.7% and an inhibition at 10 µM (NCI-H460) of 25%. For the same compound, the inhibition at 10 µM (COLO 205) was < 10%, the inhibition at 10 µM (HCT-116) was < 10% and the inhibition at 10 µM (KM12) was < 10%. For the same compound, the inhibition at 10 µM (SF-539) was < 10%, the inhibition at 10 µM (SF-268) was < 10% and the inhibition at 10 µM (SF-295) was < 10%. For the same compound, the inhibition at 10 µM (U251) was < 10%, the inhibition at 10 µM (MALME-3M) was < 10% and the inhibition at 10 µM (LOX IMVI) was 13.8%. For the same compound, the inhibition at 10 µM (MDA-MB-435) was < 10%, the inhibition at 10 µM (SK-MEL-2) was < 10% and the inhibition at 10 µM (SK-MEL-28) was < 10%. The inhibition at 10 µM (NCI/ADR-RES) was 10.2%, the inhibition at 10 µM (IGROV1) was 33.6% and the inhibition at 10 µM (OVCAR-3) was < 10%. The inhibition at 10 µM (OVCAR-4) was < 10%, the inhibition at 10 µM (OVCAR-5) was < 10% and the inhibition at 10 µM (786-0) was < 10%. For the same compound, the inhibition at 10 µM (CAKI-1) was 19%, the inhibition at 10 µM (ACHN) was 13.3% and the inhibition at 10 µM (UO-31) was 33.6%. For the same compound, the inhibition at 10 µM (BT-549) was < 10%, the inhibition at 10 µM (MDA-MB-231/ATCC) was 18.3% and the inhibition at 10 µM (HS 578 T) was < 10%. For the same compound, the inhibition at 10 µM (MDA-MB-468) was < 10% and the inhibition at 10 µM (T-47D) was 33.3%.
For `CCCN1C(=O)/C(=N\NC(=O)c2oc3ccccc3c2C)c2cc(Br)ccc21` [Compound 7g], the inhibition at 10 µM (CCRF-CEM) was < 10%, the inhibition at 10 µM (MOLT-4) was < 10% and the inhibition at 10 µM (SR) was < 10%. The inhibition at 10 µM (NCI-H23) was < 10%, the inhibition at 10 µM (NCI-H522) was < 10% and the inhibition at 10 µM (NCI-H460) was < 10%. The inhibition at 10 µM (COLO 205) was < 10%, the inhibition at 10 µM (HCT-116) was < 10% and the inhibition at 10 µM (KM12) was < 10%. The inhibition at 10 µM (SF-539) was < 10%, the inhibition at 10 µM (SF-268) was < 10% and the inhibition at 10 µM (SF-295) was < 10%. The inhibition at 10 µM (U251) was < 10%, the inhibition at 10 µM (MALME-3M) was 16% and the inhibition at 10 µM (LOX IMVI) was < 10%. For the same compound, the inhibition at 10 µM (MDA-MB-435) was < 10%, the inhibition at 10 µM (SK-MEL-2) was < 10% and the inhibition at 10 µM (SK-MEL-28) was < 10%. For the same compound, the inhibition at 10 µM (NCI/ADR-RES) was < 10%, the inhibition at 10 µM (IGROV1) was 22.4% and the inhibition at 10 µM (OVCAR-3) was < 10%. For the same compound, the inhibition at 10 µM (OVCAR-4) was < 10%, the inhibition at 10 µM (OVCAR-5) was < 10% and the inhibition at 10 µM (786-0) was < 10%. For the same compound, the inhibition at 10 µM (CAKI-1) was 14.1%, the inhibition at 10 µM (ACHN) was < 10% and the inhibition at 10 µM (UO-31) was 21.9%. The inhibition at 10 µM (BT-549) was < 10%, the inhibition at 10 µM (MDA-MB-231/ATCC) was < 10% and the inhibition at 10 µM (HS 578 T) was < 10%. For the same compound, the inhibition at 10 µM (MDA-MB-468) was < 10% and the inhibition at 10 µM (T-47D) was < 10%.

From paper PMC8245078, “Development of novel benzofuran-isatin conjugates as potential antiproliferative agents with apoptosis inducing mechanism in Colon cancer” (Journal of Enzyme Inhibition and Medicinal Chemistry, 2021)
